# Measured values taken from PubChem BioAssay (NCI).
#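 Exposure lasted 48 hours, with cells grown in 96-well plates and compounds tested at five concentrations. The concentration for 50% growth inhibition is given as GI50. The concentration for full growth arrest is given as TGI.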
# Columns and labels:
# Test in all cases: inhibition of tumour cell growth, NCI panel, 48 h
# [1] = system: 786-0 renal
# [2] = system: A498 renal
# [3] = system: A549 NSCLC
# [4] = system: ACHN renal
# [5] = system: BT-549 breast
# [6] = system: CCRF-CEM leukemia
# [7] = system: COLO 205 colon
# [8] = system: DU-145 prostate
# [9] = system: EKVX NSCLC
# [10] = system: HCC-2998 colon
# [11] = system: HCT-116 colon
# [12] = system: HCT-15 colon
# [13] = system: HL-60(TB) leukemia
# [14] = system: HOP-62 NSCLC
# [15] = system: HOP-92 NSCLC
# [16] = system: HS 578T breast
# [17] = system: HT29 colon
# [18] = system: IGROV1 ovarian
# [19] = system: K-562 leukemia
# [20] = system: KM12 colon
# [21] = system: LOX IMVI melanoma
# [22] = system: M14 melanoma
# [23] = system: MALME-3M melanoma
# [24] = system: MCF7 breast
# [25] = system: MDA-MB-231 breast
# [26] = system: MDA-MB-435
# [27] = system: MOLT-4 leukemia
# [28] = system: NCI-H226 lung
# [29] = system: NCI-H23 lung
# [30] = system: NCI-H460 lung
# [31] = system: NCI-H522 lung
# [32] = system: NCI/ADR-RES ovarian
# [33] = system: OVCAR-3 ovarian
# [34] = system: OVCAR-4 ovarian
# [35] = system: OVCAR-5 ovarian
# [36] = system: OVCAR-8 ovarian
# [37] = system: PC-3 prostate
# [38] = system: RPMI-8226 leukemia
# [39] = system: RXF 393 renal
# [40] = system: SF-268 CNS
# [41] = system: SF-295 CNS
# [42] = system: SF-539 CNS
# [43] = system: SK-MEL-2 melanoma
# [44] = system: SK-MEL-28 melanoma
# [45] = system: SK-MEL-5 melanoma
# [46] = system: SK-OV-3 ovarian
# [47] = system: SN12C renal
# [48] = system: SNB-19 CNS
# [49] = system: SNB-75 CNS
# [50] = system: SR leukemia
# [51] = system: SW-620 colon
# [52] = system: T-47D breast
# [53] = system: TK-10 renal
# [54] = system: U251 CNS
# [55] = system: UACC-257 melanoma
# [56] = system: UACC-62 melanoma
# [57] = system: UO-31 renal
smiles,measurement,setting,value
CCNCCCn1c2c(c3ccc(F)cc3c1=O)C(=O)c1cc(OC)cnc1-2,GI50,[1],195 nM
same,TGI,[1],755 nM
same,GI50,[2],248 nM
same,TGI,[2],1350 nM
same,GI50,[3],64.3 nM
same,TGI,[3],256 nM
same,GI50,[4],127 nM
same,TGI,[4],371 nM
same,GI50,[5],936 nM
same,TGI,[5],5140 nM
same,GI50,[6],164 nM
same,TGI,[6],1120 nM
same,GI50,[7],68.8 nM
same,TGI,[7],1160 nM
same,GI50,[8],215 nM
same,TGI,[8],1370 nM
same,GI50,[9],328 nM
same,TGI,[9],2780 nM
same,GI50,[10],1060 nM
same,TGI,[10],2500 nM
same,GI50,[11],136 nM
same,TGI,[11],550 nM
same,GI50,[12],228 nM
same,TGI,[12],3320 nM
same,GI50,[13],202 nM
same,TGI,[13],644 nM
same,GI50,[14],149 nM
same,TGI,[14],472 nM
same,GI50,[15],360 nM
same,TGI,[15],4390 nM
same,GI50,[16],1620 nM
same,TGI,[16],13500 nM
same,GI50,[17],147 nM
same,TGI,[17],860 nM
same,GI50,[18],330 nM
same,TGI,[18],4490 nM
same,GI50,[19],206 nM
same,TGI,[19],1680 nM
same,GI50,[20],259 nM
same,TGI,[20],10000 nM
same,GI50,[21],141 nM
same,TGI,[21],319 nM
same,GI50,[22],336 nM
same,TGI,[22],1720 nM
same,GI50,[23],329 nM
same,TGI,[23],1440 nM
same,GI50,[24],42.7 nM
same,TGI,[24],2750 nM
same,GI50,[25],404 nM
same,TGI,[25],1930 nM
same,GI50,[26],477 nM
same,TGI,[26],2130 nM
same,GI50,[27],48.5 nM
same,TGI,[27],369 nM
same,GI50,[28],144 nM
same,TGI,[28],327 nM
same,GI50,[29],302 nM
same,TGI,[29],1540 nM
same,GI50,[30],45.7 nM
same,TGI,[30],222 nM
same,GI50,[31],56.2 nM
same,TGI,[31],1020 nM
same,GI50,[32],374 nM
same,TGI,[32],4890 nM
same,GI50,[33],282 nM
same,TGI,[33],2140 nM
same,GI50,[34],460 nM
same,TGI,[34],11000 nM
same,GI50,[35],331 nM
same,TGI,[35],1900 nM
same,GI50,[36],183 nM
same,TGI,[36],992 nM
same,GI50,[37],301 nM
same,TGI,[37],10300 nM
same,GI50,[38],144 nM
same,TGI,[38],692 nM
same,GI50,[39],260 nM
same,TGI,[39],922 nM
same,GI50,[40],386 nM
same,TGI,[40],10900 nM
same,GI50,[41],194 nM
same,TGI,[41],721 nM
same,GI50,[42],320 nM
same,TGI,[42],1390 nM
same,GI50,[43],1130 nM
same,TGI,[43],4120 nM
same,GI50,[44],1230 nM
same,TGI,[44],3450 nM
same,GI50,[45],254 nM
same,TGI,[45],1060 nM
same,GI50,[46],221 nM
same,TGI,[46],752 nM
same,GI50,[47],151 nM
same,TGI,[47],763 nM
same,GI50,[48],160 nM
same,TGI,[48],1260 nM
same,GI50,[49],364 nM
same,TGI,[49],5030 nM
same,GI50,[50],127 nM
same,TGI,[50],978 nM
same,GI50,[51],170 nM
same,TGI,[51],5550 nM
same,GI50,[52],145 nM
same,TGI,[52],761 nM
same,GI50,[53],296 nM
same,TGI,[53],1670 nM
same,GI50,[54],100 nM
same,TGI,[54],506 nM
same,GI50,[55],403 nM
same,TGI,[55],2160 nM
same,GI50,[56],341 nM
same,TGI,[56],1850 nM
same,GI50,[57],123 nM
same,TGI,[57],568 nM
